Test [1] has as its target T1, full-length human CHK1 (FL-CHK1) (Homo sapiens, UniProt O14757).
T1 construct: C-terminally His-tagged full-length human CHK1 (FL-CHK1); 6xHis (C); made in house
T1 sequence (O14757 1-476): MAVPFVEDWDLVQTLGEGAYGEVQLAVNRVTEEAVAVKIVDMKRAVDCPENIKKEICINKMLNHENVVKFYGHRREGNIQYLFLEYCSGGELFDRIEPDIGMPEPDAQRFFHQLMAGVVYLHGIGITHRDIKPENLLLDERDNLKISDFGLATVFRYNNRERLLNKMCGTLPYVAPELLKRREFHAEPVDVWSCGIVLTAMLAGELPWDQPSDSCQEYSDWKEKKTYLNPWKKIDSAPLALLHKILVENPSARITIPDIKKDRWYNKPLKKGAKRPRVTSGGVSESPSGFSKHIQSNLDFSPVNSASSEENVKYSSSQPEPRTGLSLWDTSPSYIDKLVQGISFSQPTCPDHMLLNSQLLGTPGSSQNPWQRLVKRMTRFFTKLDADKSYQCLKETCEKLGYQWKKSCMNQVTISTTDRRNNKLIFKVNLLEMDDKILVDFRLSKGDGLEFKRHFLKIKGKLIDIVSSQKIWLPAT
The experiment in a line: FL-CHK1 assay (coupled spectrophotometric, Syntide-2). Format: biochemical. As to conditions: FL-CHK1, 0.15 mM ATP. The source says: C-terminally His-tagged full-length human CHK1 (FL-CHK1) was expressed using the baculovirus/insect cell system. It contains 6 histidine residues (6 x His-tag) at the C-terminus of the 476 amino acid human CHK1. The protein was purified by conventional chromatographic techniques.
The production of ADP from ATP that accompanies phosphoryl transfer to the synthetic substrate peptide Syntide-2 (PLARTLSVAGLPGKK) was coupled to oxidation of NADH using phosphoenolpyruvate (PEP) through the actions of pyruvate kinase (PK) and lactic dehydrogenase (LDH). The oxidation of NADH was monitored by following the decrease of absorbance at 340 nm (ε340=6.22 cm^−1 mM^−1) using a HP8452 spectrophotometer. Typical reaction solutions contained: […] PEP; 0.15 mM NADH; 28 units of LDH/mL; 16 units of PK/mL; 3 mM DTT; 0.125 mM Syntide-2; 0.15 mM ATP; 25 mM MgCl2 in 50 mM TRIS, pH 7.5; and 400 mM NaCl. Assays were initiated with 10 nM of FL-CHK1. Ki values were determined by measuring initial enzyme activity in the presence of varying concentrations of test compounds. The data were analyzed using Enzyme Kinetic and Kaleidagraph software. […]

In test [2] the test system is CA-46 (lymphoma) cells. The test is described as follows: Whole cell checkpoint abrogation assay (CHK1 Mitotic Index ELISA). Format: cell-based. As to conditions: for EC50: concentration causing 50% abrogation of the checkpoint, camptothecin + Nocodazole. How it is done:
To examine the in vitro effects of CHK1 inhibitory compounds, an ELISA assay can be designed to monitor the abrogation of DNA damage-induced checkpoint control. The assay can be based on the trapping and detection of mitotic cells following DNA damage-induced arrest.
CA-46 (lymphoma) cells can be treated with a DNA damaging agent, such as camptothecin (Sigma), at 50 nM for 8 hours to induce DNA damage. The control compound or CHK1 inhibitor can be then added at increasing concentrations with Nocodazole (Sigma) at 0.1 μg/ml and plates can be incubated for 16 hours. Control cells, where only CHK1 inhibitors can be added, can be prepared as well to assure that the inhibitors alone have no effect on the cell cycle. The cells can be then harvested, washed with PBS, and crude acid extraction can be performed. Pellets can be resuspended in 80 μl of Acid Extraction Buffer (10 mM Hepes pH 7.9, 1.5 mM MgCl2, 10 mM KCl, 0.5 mM DTT, 1.5 mM PMSF, 0.4N sulfuric acid), vortexed briefly, and incubated for 30 minutes on ice. Samples can be then centrifuged and 75 μl of the supernatant can be transferred to a 96 well flat-bottom plate (VWR 3596). Next 15 μl Neutralizing Cocktail (# of samples×(10 μl 10N NaOH+5 μl 1M Tris Base) can be added to each well, and after mixing, 5 μl of this can be transferred to another 96 well plate with 100 μl 50 mM Tris base (pH 9.6) in each well. Samples can be dried overnight. The wells can be then washed with 200 μl ELISA wash buffer (PBS with 20 mM Tris pH 7.5, 0.05% Tween 20) 5 times and blocked with 200 μl blocking buffer (PBS with 20 mM Tris pH 7.5, 0.05% Tween 20, 3.5% Dry milk, 1.5% BSA. pH to 7.5 after preparation) for 1 hour at room temperature. Following wash and block, anti-phospho Histone H3 antibodies (Upstate USA, Inc., rabbit polyclonal) can be added at 0.5 μg/ml in block (100 μl per well) and incubated for 2 hours at room temperature. Wells can be washed again to remove unbound primary antibody and 100 μl alkaline phosphatase conjugated secondary antibodies at 0.3 mg/ml (Pierce, goat anti-rabbit IgG ([…]+L)) in block can be added for 1 hour at room temp. Wells can be washed 5 times to remove unbound secondary antibody, and washed again 3 times with PBS alone to remove detergents. Then 100 μl alkaline phosphatase substrate (Pierce 1-Step pNPP) can be added to wells. Plates can be protected from light and incubated at room temp for 1 hour. The OD can be read on Molecular Devices Vmax Kinetic Microplate Reader at 405 nm. The ratio of the OD (optical density) of a compound treated sample to the Nocodazole only treated sample (about 100% mitotic or abrogation) can be expressed in a percentage, and quantifies the percent abrogation of the checkpoint. The concentration at which a compound causes 50% abrogation of the checkpoint can be called the EC50. The raw OD values can be graphed in Excel, and an EC50 value can be generated using Kaleidograph software. Strong signal results from Nocodazole only treated cells, and equals 100% mitosis in this assay. Camptothecin+Nocodazole treated control samples have low signal, signifying no mitosis and therefore, no checkpoint abrogation. When potent CHK1 inhibitors are added to Camptothecin treated cells with Nocodazole, a high signal can be generated (generally in a dose dependent manner), due to the checkpoint abrogation activity caused by the combination treatment.
A general note: ELISA stands for enzyme-linked immunosorbent assay.

Consider 22 compounds from patent US20050043381A1, “Aminopyrazole compounds” (AGOURON PHARMACEUTICALS, INC., priority 2003, published 2005).

The Ki is the equilibrium dissociation constant of an inhibitor or competing ligand from its target. High values mean lower affinity, low ones higher affinity. What is called EC50 is the concentration that produces a half-maximal response.

The compound `N#Cc1cccc(Nc2cc(-c3ccc(-c4ccc(O)cc4O)cc3)n[nH]2)c1` [Example 1, 3-{[3-(2′,4′-Dihydroxy-1,1′-biphenyl-4-yl)-1H-pyrazol-5-yl]amino}benzonitrile] displayed a Ki in test [1] of 1 to 10 nM. In test [2] (@ 0.5 μM), the “percent abrogation of the checkpoint” value was determined as 7% @ 0.5 μM.

For `N#Cc1ccc(Nc2cc(-c3ccc(-c4ccc(O)cc4O)cc3)n[nH]2)cc1` [Example 2, 4-{[3-(2′,4′-Dihydroxy-1,1′-biphenyl-4-yl)-1H-pyrazol-5-yl]amino}benzonitrile], the Ki in test [1] fell in the range of 1 to 10 nM. For the same compound, the “percent abrogation of the checkpoint” value in test [2] (@ 1 μM) amounted to 1% @ 1 μM.

`Oc1ccc(-c2ccc(-c3cc(Nc4cccc(CNC5CC5)c4)n[nH]3)cc2)c(O)c1` [Example 3, 4′-[5-(3-Cyclopropylaminomethyl-phenylamino)-2H-pyrazol-3-yl]-biphenyl-2,4-diol acetate]: the EC50 in test [2] turned out to be 900 nM.

Take `Oc1ccc(-c2ccc(-c3cc(Nc4ccc(CNC5CC5)cc4)n[nH]3)cc2)c(O)c1` [Example 4, 4′-[5-(4-Cyclopropylaminomethyl-phenylamino)-2H-pyrazol-3-yl]-biphenyl-2,4-diol acetate]: the EC50 in test [2] came to 60 nM.

For `Cc1cc(O)cc(O)c1-c1ccc(-c2cc(Nc3ccc(CNC(C)C)cc3)n[nH]2)cc1` [Example 7], in test [2], the 50% effective concentration (EC50) stood at 380 nM.

In the case of `Oc1cc(O)c(-c2ccc(-c3cc(Nc4ccc(CNC5CC5)cc4)n[nH]3)cc2)c(Cl)c1` [Example 8, 4′-[5-(4-Cyclopropylaminomethyl-phenylamino)-2H-pyrazol-3-yl]-biphenyl-6-chloro-2,4-diol acetate], the half-maximal effective concentration (EC50) in test [2] was 150 nM.

`Oc1cc(O)c(-c2ccc(-c3cc(Nc4ccc(CNC5CC5)cc4)n[nH]3)cc2)c(F)c1` [Example 9, 4′-[5-({4-[(cyclopropylamino)methyl]phenyl}amino)-1H-pyrazol-3-yl]-6-fluoro-1,1′-biphenyl-2,4-diol] registered an inhibitory constant (Ki) in test [1] of 1 to 10 nM. The 50% effective concentration (EC50) in test [2] came out at 88 nM.

For the compound `Oc1ccc(-c2ccc(-c3cc(Nc4ccc(CNCC5CC5)cc4)n[nH]3)cc2)c(O)c1` [Example 10, 4′-[5-(4-Cyclopropylmethylaminomethyl-phenylamino)-2H-pyrazol-3-yl-]-biphenyl-2,4-diol acetate], the EC50 in test [2] is 75 nM.

The compound `Oc1ccc(-c2ccc(-c3cc(Nc4ncccn4)n[nH]3)cc2)c(O)c1` [Example 11, N-[3-(2′,4′-dihydoxy-1,1′-biphenyl-4-yl)-1H-pyrazol-5-yl]pyrimidin-2-amine] gave an inhibition constant Ki in test [1] of 1 to 10 nM.

Turning to `OCc1ccc(Nc2cc(-c3ccc(-c4ccc(O)cc4O)cc3)[nH]n2)cn1` [Example 12, 4′-[5-(6-Hydroxymethyl-pyridin-3-ylamino)-2H-pyrazol-3-yl]-biphenyl-2,4-diol], the “percent abrogation of the checkpoint” value in test [2] (@ 0.5 μM) worked out at 5% @ 0.5 μM.

Regarding `OCc1cc(Nc2cc(-c3ccc(-c4ccc(O)cc4O)cc3)[nH]n2)ccn1` [Example 13, 4′-[5-(2-Hydroxymethyl-pyridin-4-ylamino)-2H-pyrazol-3-yl]-biphenyl-2,4-diol acetate], the “percent abrogation of the checkpoint” value in test [2] (@ 0.5 μM) was determined as 0% @ 0.5 μM.

For `Oc1ccc(-c2ccc(-c3cc(Nc4ccc(CNC5CCCC5)nc4)n[nH]3)cc2)c(O)c1` [Example 14, 4′-[5-({6-[(cyclopentylamino)methyl]pyridin-3-yl}amino)-1H-pyrazol-3-yl]-1,1′-biphenyl-2,4-diol], in test [1], the inhibitory constant (Ki) fell in the range of 1 to 10 nM. In addition, the half-maximal effective concentration (EC50) in test [2] turned out to be 160 nM.

For `CN(C)Cc1ccc(Nc2cc(-c3ccc(-c4ccc(O)cc4O)cc3)[nH]n2)cn1` [Example 15, 4′-[5-({6-[(dimethylamino)methyl]pyridin-3-yl}amino)-1H-pyrazol-3-yl]-1,1′-biphenyl-2,4-diol], the Ki in test [1] fell in the range of 1 to 10 nM. In addition, the 50% effective concentration (EC50) in test [2] was determined as 380 nM.

On to `CNC(=S)c1ccc(Nc2cc(-c3ccc(-c4ccc(O)cc4O)cc3)n[nH]2)cn1` [Example 16, 5-[5-(2′,4′-Dihydroxy-biphenyl-4-yl)-2H-Pyrazol-3-ylamino]-pyridine-2-carbothioic acid methylamide], for which, in test [1], the inhibitory constant (Ki) fell in the range of 1 to 10 nM. The “percent abrogation of the checkpoint” value in test [2] (@ 0.5 μM) was found to be 10% @ 0.5 μM.

As to `Oc1ccc(-c2ccc(-c3cc(Nc4ccccn4)[nH]n3)cc2)c(O)c1` [Example 17, N-[5-(2′,4′-Dihydroxy-1,1′-biphenyl-4-yl)-1H-pyrazol-3-yl]pyridin-2-amine], the “percent abrogation of the checkpoint” value in test [2] (@ 0.5 μM) was found to be 16% @ 0.5 μM.

On to `Oc1ccc(-c2ccc(-c3cc(Nc4cccnc4)[nH]n3)cc2)c(O)c1` [Example 18, N-[5-(2′,4′-Dihydroxy-1,1′-biphenyl-4-yl)-1H-pyrazol-3-yl]pyridin-3-amine], for which the concentration giving a half-maximal response (EC50) in test [2] is 540 nM.

`Oc1ccc(-c2ccc(-c3cc(Nc4ccncc4)[nH]n3)cc2)c(O)c1` [Example 19, 4′-[5-(pyridin-4-ylamino)-1H-pyrazol-3-yl]-1,1′-biphenyl-2,4-diol] returned a Ki in test [1] of 1 to 10 nM. The “percent abrogation of the checkpoint” value in test [2] (@ 0.5 μM) amounted to 14% @ 0.5 μM.

For `Oc1ccc(-c2ccc(-c3cc(Nc4cncs4)[nH]n3)cc2)c(O)c1` [Example 20, 4′-[5-(1,3-thiazol-5-ylamino)-1H-pyrazol-3-yl]-1,1′-biphenyl-2,4-diol], the “percent abrogation of the checkpoint” value in test [2] (@ 0.5 μM) amounted to 10% @ 0.5 μM.

Consider `Oc1ccc(-c2ccc(-c3cc(Nc4ccccc4)n[nH]3)cc2)c(O)c1` [Example 21, 4′-(3-anilino-1H-pyrazol-5-yl)-1,1′-biphenyl-2,4-diol], for which, in test [2], the concentration giving a half-maximal response (EC50) is 500 nM.

As to `CCC(C)NCc1ccc(Nc2cc(-c3ccc(-c4ccc(O)cc4O)cc3)[nH]n2)cc1` (centres unmarked) [Example 22], in test [2], the EC50 is 60 nM.

As to `CC(C)NCc1ccc(Nc2cc(-c3ccc(-c4ccc(O)cc4O)cc3)n[nH]2)cn1` [Example 25, 4′-[5-({6-[(isopropylamino)methyl]pyridin-3-yl}amino)-1H-pyrazol-3-yl]-1,1′-biphenyl-2,4-diol], the half-maximal effective concentration (EC50) in test [2] amounted to 560 nM.

For the compound `CCNCc1ccc(Nc2cc(-c3ccc(-c4ccc(O)cc4O)cc3)[nH]n2)cn1` [Example 26, -[5-({6-[(ethylamino)methyl]pyridin-3-yl}amino)-1H-pyrazol-3-yl]-1,1′-biphenyl-2,4-diol], in test [2], the EC50 came to 560 nM.
